Reference: US20230257374A1, “NOVEL KRAS G12C PROTEIN INHIBITOR, PREPARATION METHOD THEREFOR, AND USE THEREOF” (INNOVENT BIOLOGICS (SUZHOU) CO., LTD., priority 2019, published 2023)

Legend:
[1] = test system: MIA PaCa-2 cell line (K-RAS G12C); assay: cells; assay type: cell-based; conditions: Homo sapiens, MIA PaCa-2, 96 h, read-out: MIA PaCa-2 (K-RAS G12C) IC50
Description: (§1) a) On day 1, seed cells were placed in T75 a flask. b) On day 3, the medium was taken out and washed once with DPBS. c) Cells were trypsinized with 2 mL TrypLE™ Express enzyme at room temperature (RT) or 37° C. until cells detached. d) 5 mL of fresh medium was added to suspend the cells, and then the suspension was centrifuged at 1000 rpm and room temperature for 5 min. e) The supernatant was discarded, and the cells were resuspended in 5 mL of fresh medium and counted using Countess™ H. f) The cells were seeded back into the T75 flask for further culture or placed into an assay plate for 3D cell proliferation assay.
(§2) The cells were seeded at a density of 600 cells/well in a 384-well plate with 40 μL of medium per well and a final DMSO concentration of 0.5%. b) On day 4, a 3D CTG reagent was added to each well, followed by shaking at room temperature for 1 h. c) The signals were recorded using Envision.
(§3) a) Robustness was examined using 0.5% DMSO and data of blank control medium: H=mean (DMSO); L=mean (medium); SD (H)=STDEV (DMSO); SD (L)=STDEV (medium);
(§4) Y=peak valley value+(peak top value−peak valley value)/(1+10^((Log IC50−X)×HillSlope));
(§5) X: logarithm of compound concentration; Y: percent inhibition (% inhibition); Peak top and peak valley values: the plateau period units are the same as Y; log IC50: the same logarithmic unit as X; HillSlope: slope coefficient or Hill slope.

[2] = test system: H1373 cell line (K-RAS G12C); assay: cells; assay type: cell-based; conditions: Homo sapiens, NCI-H1373, 96 h, read-out: H1373 (K-RAS G12C) IC50
Description: as §1, §2, §3, §4, §5

in vitro [3] = conditions: human, plasma
Description: (§6) To examine the stability of the test compounds in plasma, representative compounds were selected for evaluation.
(§7) Preparation of stock solution: a test compound was dissolved in DMSO to prepare a 1 mM stock solution for later use; Propantheline Bromide was dissolved in acetonitrile to prepare a 1 mM stock solution as a positive control for later use.
(§8) To each well was added 2 μL of the stock solution of the test compound and the stock solution of the positive control such that the final concentrations were 5 KM and the concentration of the organic solvent was 0.5%. Each compound was prepared in duplicate, followed by incubation at 37° C. 50 μL of samples were taken from the reaction samples in equal amounts at 0, 30, 60, 120, 180 and 240 minutes, and 450 μL of cold acetonitrile containing an internal standard was added to terminate the reaction. […] 100 μL of the supernatants were transferred to a new plate, dilute with ultra-pure water, and analyzed by LC-MS/MS.
(§9) Data results were calculated according to peak area ratios.
(§10) The percentage of remaining compound for each time point was calculated as follows:
(§11) Remaining percentagemin(%)=peak area ratiosmin/peak area ratiomin×100%
(§12) where peak area ratios represents the peak area ratio of the test compound to the internal standard compound at t min; peak area ratiomin represents the peak area ratio of the test compound to the internal standard compound at 0 min (initial).

[4] = human, plasma, 5 μM
Description: as §6, §7, §8, §9, §10, §11, §12

in vitro [5] = conditions: microsomes, pH 7.4
Description: To examine the in vitro metabolic stability of the test compounds in liver microsomes of different species, representative compounds were selected, and their stability was evaluated by measuring the concentration of the test compounds in the incubation system using LC/MS/MS and calculating their intrinsic clearance in the microsome system.
The method is specifically as follows: each compound was first dissolved in DMSO to prepare a 200 μM working solution and added to the system solution at the time of testing to form a solution with a final concentration of 1 μM.
The microsomes were stored in a −80° C. freezer.
Preparation of incubation system: an incubation system was prepared as described in the table below.
25 μL, of NADPH or phosphate buffered saline was transferred to the incubation system described above, and 2 μL, of 200 μM of the test compound or verapamil was added. The sample with NADPH added was prepared in duplicate; the NADPH negative sample was prepared in single parallel. 30 μL, of suspension was taken at 0.5, 5, 15, 30 and 60 minutes. The reaction system was terminated by adding 180 μL, of acetonitrile containing an internal standard and vortexed for 10 min. […] 100 μL, of the supernatant was transferred to a feeding plate, and 100 μL, of purified water was added. The mixture was well mixed for UPLC-MS/MS analysis.
The results based on the data were obtained by calculation according to the peak area ratio, and the peak area was detected through an extracted ion chromatogram.
The slope value (k) was determined by linear fitting of the natural logarithm of drug elimination percentage over time.

[6] = test system: NCI-H358 tumor (K-RAS G12C mutation); assay type: in vivo, BALB/c nude mice
Description: The cells were digested with trypsin-EDTA twice a week for passaging as per conventional practice. When the cell saturation reached 80%-90% and a required amount was achieved, the cells were collected and counted for later use. […] 5% DMSO/5% Solutol/90% water was used as a blank control. 3) Tumor inoculation and drug administration: BALB/c nude mice, female, 6-8 weeks old, weighing 18-20 g. The experiment started after 3-7 days of adaptive feeding. 0.1 mL of NCI-H358 cells (5×10^6 cells) were inoculated subcutaneously on the right back of each mouse. The mice were grouped for administration when the average tumor volume reached approximately 150 mm^3. The animals were weighed before administration and the tumor volume was measured. Grouping was randomly performed according to the tumor volume.
Animals were monitored daily for health and death, and routine examinations include observation of the effect of tumor growth and drug treatment on the daily performance of the animals, such as behavioral activities, food and water intake, weight changes (measured once every other day), appearance, or other abnormal conditions. Animal mortality and side effects within each group were recorded based on the number of animals in the group.
Tumor diameters were measured 2-3 times weekly using a vernier caliper.
The tumor volume was calculated as follows: […]
where a and b represent the long and short diameters of the tumor, respectively.
The anti-tumor therapeutic effect of the compound was evaluated by tumor growth inhibition rate TGI (%) or relative tumor proliferation rate T/C (%).
TGI (%) was calculated as follows: […]
T/C (%) was calculated as follows: […]
where TRTV represents the relative tumor volume of the treatment group; CRTV represents the relative tumor volume of the solvent control group.
Based on the results of tumor measurement, the relative tumor volume (RTV) was calculated as follows: […]
where V0 represents the average tumor volume measured at the time of grouping and administration (i.e., d0), Vt represents the average tumor volume in a certain measurement, and TRTV and CRTV take the data on the same day.
After the completion of the experiment, tumors were weighed, and the percentage of Tweight/Cweight was calculated, where Tweight and Cweight represent the tumor weights of the treatment group and the solvent control group, respectively.
Data calculation and analysis: T test was employed for comparison between two groups. One-way ANOVA was employed for comparison between three or more groups. If there is a significant difference in F-values, multiple comparisons should be made after ANOVA analysis. All data analyses were performed with SPSS 17.0. p<0.05 was defined as a significant difference.

[7] = test system: H358 cell line (K-RAS G12C); assay: cells; assay type: cell-based, human; conditions: Homo sapiens, NCI-H358, 96 h, read-out: H358 (K-RAS G12C) IC50
Description: as §1, §2, §3, §4, §5

[8] = Day 0 (at grouping, before administration), 15 mg/kg PO QD group

[2H]C([2H])([2H])N1CCC[C@H]1COc1nc2c(c(N3CCN(C(=O)C=C)[C@@H](CC#N)C3)n1)CCN(c1cccc3cccc(Cl)c13)C2 [Compound 41, 2-((S)-1-acryloyl-4-(7-(8-chloronaphthalene-1-yl)-2-(((S)-1-(methyl-d3)pyrrolidin-2-yl)methoxy)-5,6,7,8-tetrahydropyrido[3,4-d]pyrimidin-4-yl)piperazin-2-yl)acetonitrile]
IC50 [1]: 0.31 nM | IC50 [2]: 0.18 nM | half-life at 5 μM (in vitro [3]): 119 min | Remaining percentage (%) 0 min ([4]; 0 h): 100.00% | Remaining percentage (%) 30 min ([4]; 0.5 h): 96.01% | Remaining percentage (%) 60 min ([4]; 1 h): 75.85% | Remaining percentage (%) 120 min ([4]; 2 h): 56.99% | Remaining percentage (%) 180 min ([4]; 3 h): 34.80% | Remaining percentage (%) 240 min ([4]; 4 h): 26.83% | half-life at 1 μM (in vitro [5]; ICR (CD-1), mouse): 14.6 min | microsomal CLint at 1 μM (in vitro [5]; ICR (CD-1), mouse): 95.3 µL/min/mg | half-life at 1 μM (in vitro [5]; human): 26 min | microsomal CLint at 1 μM (in vitro [5]; human): 53.4 µL/min/mg | Day 0 Body weight (g) Waverage ± SEM [6, 8]: 22.7 ± 0.4 g | Day 0 Tumor volume (mm^3) Vaverage ± SEM [6, 8]: 151 ± 8 mm^3 | Day 21 Body weight (g) Waverage ± SEM ([6]; Day 21, 15 mg/kg PO QD): 23.4 ± 0.6 g | Day 21 Tumor volume (mm^3) Vaverage ± SEM ([6]; Day 21, 15 mg/kg PO QD): 168 ± 20 mm^3 | Tumor inhibition rate TGI (%) ([6]; Day 21, 15 mg/kg PO QD): 97.0% | Tumor regression ([6]; Day 21, 15 mg/kg PO QD, animals with regression / group of 8): 2/8 | IC50 [7]: 0.28 nM
